Test: Saltiness evaluation of shiokara (comparison evaluation of flavor by 10 panelists)
Assay type: in vivo
Conditions: for Evaluation A: the number of panelists who felt stimulation of saltiness / Evaluation B: the number of panelists who slightly felt stimulation of saltiness / Evaluation N: the number of panelists who judged that the stimulation of saltiness was reduced to mild saltiness / Flavor judgment: the number of panelists who judged it as most proper saltiness: 10 panelists
Description: Sedanenolide was added as a saltiness-improving agent (salty stimulation-reducing agent) of the present invention to commercially available salted squid to obtain shiokara containing sedanenolide at the concentrations shown in the following Table 1.
A: the number of panelists who felt stimulation of saltiness B: the number of panelists who slightly felt stimulation of saltiness N: the number of panelists who judged that the stimulation of saltiness was reduced to mild saltiness Flavor judgment: the number of panelists who judged it as most proper saltiness

[1] = shiokara containing 0.01 ppb sedanenolide
[2] = shiokara containing 0.01 ppm sedanenolide
[3] = shiokara containing 0.1 ppb sedanenolide
[4] = shiokara containing 0.1 ppm sedanenolide
[5] = shiokara containing 1 ppb sedanenolide
[6] = shiokara containing 1 ppm sedanenolide
[7] = shiokara containing 1 ppt sedanenolide
[8] = shiokara containing 10 ppm sedanenolide

Compound: CCCC[C@@H]1OC(=O)C2=C1CCC=C2 [sedanenolide]
- saltiness improvement, overall result (amount of sedanenolide about 0.1 ppb to 1 ppm): particularly good results
- improvement in stimulation of saltiness (low concentration of 0.01 ppb sedanenolide): some panelists felt some improvement in stimulation of saltiness
- Evaluation A: the number of panelists who felt stimulation of saltiness [1]: 6
- Evaluation B: the number of panelists who slightly felt stimulation of saltiness [1]: 4
- Evaluation N: the number of panelists who judged that the stimulation of saltiness was reduced to mild saltiness [1]: 0
- Flavor judgment: the number of panelists who judged it as most proper saltiness [1]: 0
- stimulation of saltiness (shiokara containing 0.01 ppb to 10 ppm of sedanenolide): improved
- Evaluation A: the number of panelists who felt stimulation of saltiness [2]: 2
- Evaluation B: the number of panelists who slightly felt stimulation of saltiness [2]: 2
- Evaluation N: the number of panelists who judged that the stimulation of saltiness was reduced to mild saltiness [2]: 6
- Flavor judgment: the number of panelists who judged it as most proper saltiness [2]: 3
- Evaluation A: the number of panelists who felt stimulation of saltiness [3]: 2
- Evaluation B: the number of panelists who slightly felt stimulation of saltiness [3]: 7
- Evaluation N: the number of panelists who judged that the stimulation of saltiness was reduced to mild saltiness [3]: 1
- Flavor judgment: the number of panelists who judged it as most proper saltiness [3]: 0
- Evaluation A: the number of panelists who felt stimulation of saltiness [4]: 1
- Evaluation B: the number of panelists who slightly felt stimulation of saltiness [4]: 2
- Evaluation N: the number of panelists who judged that the stimulation of saltiness was reduced to mild saltiness [4]: 7
- Flavor judgment: the number of panelists who judged it as most proper saltiness [4]: 4
- Evaluation A: the number of panelists who felt stimulation of saltiness [5]: 3
- Evaluation B: the number of panelists who slightly felt stimulation of saltiness [5]: 2
- Evaluation N: the number of panelists who judged that the stimulation of saltiness was reduced to mild saltiness [5]: 5
- Flavor judgment: the number of panelists who judged it as most proper saltiness [5]: 0
- Evaluation A: the number of panelists who felt stimulation of saltiness [6]: 0
- Evaluation B: the number of panelists who slightly felt stimulation of saltiness [6]: 1
- Evaluation N: the number of panelists who judged that the stimulation of saltiness was reduced to mild saltiness [6]: 9
- Flavor judgment: the number of panelists who judged it as most proper saltiness [6]: 2
- Evaluation A: the number of panelists who felt stimulation of saltiness [7]: 10
- Evaluation B: the number of panelists who slightly felt stimulation of saltiness [7]: 0
- Evaluation N: the number of panelists who judged that the stimulation of saltiness was reduced to mild saltiness [7]: 0
- Flavor judgment: the number of panelists who judged it as most proper saltiness [7]: 0
- Evaluation A: the number of panelists who felt stimulation of saltiness [8]: 0
- Evaluation B: the number of panelists who slightly felt stimulation of saltiness [8]: 1
- Evaluation N: the number of panelists who judged that the stimulation of saltiness was reduced to mild saltiness [8]: 9
- Flavor judgment: the number of panelists who judged it as most proper saltiness [8]: 1
